Our source for the inhibition and melting point values is patent US20100168093A1, “SUBSTITUTED 3-AMINO-4 -HYDROXY PYRROLIDINES COMPOUNDS, THEIR PREPARATION AND USE AS MEDICAMENTS” (priority 2006, published 2010).

One data set has as its target T1, Sigma-1 receptor (Cavia porcellus, UniProt Q60492).
T1 construct: guinea pig brains were homogenized; from tissue; host or cells: guinea pig brain membranes
The data set can be described thus: Sigma-1 receptor binding assay, [3H](+)-pentazocine displacement in brain membranes. Particulars: 2.5 h, compound at 10^−7 M; [3H](+)-pentazocine 0.5 nM; guinea pig brain membranes; non-specific binding defined by 1 μM haloperidol; read-out: Percent Replacement Sigma-1 receptor [10^−7 M]. The protocol:
Some representative compounds of the invention were tested for their activity as sigma (sigma-1) inhibitors. The following protocol was followed:
Brain membrane preparation and binding assays for the σ1-receptor were performed as described (DeHaven-Hudkins et al., 1992, Eur. J. Pharmacol. 227, 371-378.) with some modifications. In brief, guinea pig brains were homogenized in 10 vols. (w/v) of Tris-HCl 50 mM 0.32 M sucrose, pH 7.4, with a Kinematica Polytron PT 3000 at 15000 r.p.m. for 30 s. The homogenate was centrifuged at 1000g for 10 min at 4° C. and the supematants collected and centrifuged again at 48000 g for 15 min at 4° C. The pellet was resuspended in 10 volumes of Tris-HCl buffer (50 mM, pH 7.4), incubated at 37° C. for 30 min, and centrifuged at 48000 g for 20 min at 4° C. Following this, the pellet was resuspended in fresh Tris-HCl buffer (50 mM, pH 7.4) and stored on ice until use.
Each assay tube contained 10 μL of [^3H](+)-pentazocine (final concentration of 0.5 nM), 900 μL of the tissue suspension to a final assay volume of 1 mL and a final tissue concentration of approximately 30 mg tissue net weight/mL. Non-specific binding was defined by addition of a final concentration of 1 μM haloperidol. All tubes were incubated at 37° C. for 150 min before termination of the reaction by rapid filtration over Schleicher & Schuell GF 3362 glass fibre filters [previously soaked in a solution of 0.5% polyethylenimine for at least 1 h]. Filters were then washed with four times with 4 mL of cold Tris-HCl buffer (50 mM, pH 7.4). Following addition of scintillation cocktail, the samples were allowed to equilibrate overnight. The amount of bound radioactivity was determined by liquid scintillation spectrometry using a Wallac Winspectral 1414 liquid scintillation counter. Protein concentrations were determined by the method of Lowry et al. (1951; J. Biol. Chem, 193, 265.).

T1 sequence (Q60492 whole entry): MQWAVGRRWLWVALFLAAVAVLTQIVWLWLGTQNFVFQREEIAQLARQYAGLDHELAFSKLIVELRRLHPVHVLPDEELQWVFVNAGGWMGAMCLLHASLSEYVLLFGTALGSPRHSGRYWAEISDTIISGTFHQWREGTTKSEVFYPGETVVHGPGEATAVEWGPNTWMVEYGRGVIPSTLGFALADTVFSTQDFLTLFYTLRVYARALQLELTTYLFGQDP

The term melting point denotes the temperature, or range, at which the solid turns liquid. With `O[C@@H]1CN(Cc2ccccc2)C[C@H]1N1CCN(c2ccccc2)CC1` [Example 18, (3,4-trans)-1-benzyl-4-(4-phenylpiperazin-1-yl)pyrrolidine-3-ol], the melting point lay in the range of 120 to 123 °C. Moreover, on Sigma-1 receptor, the inhibition at 0.1 µM turned out to be 90.9%.

Molecule `O[C@@H]1CN(Cc2ccccc2)C[C@H]1N1CCN(Cc2ccccc2)CC1` [Example 17, (3,4-trans)-1-benzyl-4-(4-benzylpiperazin-1-yl)pyrrolidine-3-ol] registered a melting point of 102 to 103 °C. Also, the inhibition at 0.1 µM at Sigma-1 receptor was 82.1%.

Regarding `O=C(c1ccccc1)N1CCN([C@@H]2CN(Cc3ccccc3)C[C@H]2O)CC1` [Example 20, (4-((3,4-trans)-1-benzyl-4-hydroxypyrrolidine-3-yl)piperazin-1-yl)(phenyl)methanone], the melting point was 130 to 134 °C.
